Our source for the inhibition and EC50 values is patent publication US11485733B2, “Azaquinoline derivatives” (BAYER ANIMAL HEALTH GMBH, priority 2017, dated 2022).

A value given as a limit tells only on which side of the number the result lay.

The test system of test [1] is Nippostrongylus brasiliensis. The test can be described thus: Nippostrongylus brasiliensis (NIPOBR) adult worms, acetylcholine esterase readout. The conditions noted are these: read-out: activity (reduction of AChE compared to negative control); for inhibition at 1 µg/mL: at 1 μg/ml (1 ppm); for inhibition at 10 µg/mL: at 10 μg/ml (10 ppm). As for the experimental part:
In Vitro Assay 3: Nippostrongylus brasiliensis (NIPOBR)
Adult Nippostrongylus brasiliensis were washed with saline buffer containing 100 U/ml penicillin, 0.1 mg/ml streptomycin and 2.5 μg/ml amphotericin B. Test compounds were dissolved in DMSO and worms were incubated in medium in a final concentration of 10 μg/ml (10 ppm) respectively 1 μg/ml (1 ppm). An aliquot of the medium was used to determine the acetylcholine esterase activity in comparison to a negative control. The principle of measuring acetylcholine esterase as readout for anthelmintic activity was described in Rapson et al (1986) and Rapson et al (1987).

The subject of test [2] is Dirofilaria immitis microfilariae. The test can be described thus: Dirofilaria immitis microfilariae (DIROIM L1) motility. The settings on record: 72 h, read-out: EC50 (reduction of motility).
Test [3] relates to Dirofilaria immitis. Kind of test: Dirofilaria immitis (DIROIM L4) larval motility. The settings on record: 72 h, read-out: EC50 (reduction of motility).
Test [4] addresses D. immitis Slo-1 (Dirofilaria immitis, UniProt I0DFK5). Kind of test: D. immitis Slo-1, action at a recombinant CHO cell line (membrane potential, FLIPR). The format is cell-based.

D. immitis Slo-1, sequence (I0DFK5 1-1119): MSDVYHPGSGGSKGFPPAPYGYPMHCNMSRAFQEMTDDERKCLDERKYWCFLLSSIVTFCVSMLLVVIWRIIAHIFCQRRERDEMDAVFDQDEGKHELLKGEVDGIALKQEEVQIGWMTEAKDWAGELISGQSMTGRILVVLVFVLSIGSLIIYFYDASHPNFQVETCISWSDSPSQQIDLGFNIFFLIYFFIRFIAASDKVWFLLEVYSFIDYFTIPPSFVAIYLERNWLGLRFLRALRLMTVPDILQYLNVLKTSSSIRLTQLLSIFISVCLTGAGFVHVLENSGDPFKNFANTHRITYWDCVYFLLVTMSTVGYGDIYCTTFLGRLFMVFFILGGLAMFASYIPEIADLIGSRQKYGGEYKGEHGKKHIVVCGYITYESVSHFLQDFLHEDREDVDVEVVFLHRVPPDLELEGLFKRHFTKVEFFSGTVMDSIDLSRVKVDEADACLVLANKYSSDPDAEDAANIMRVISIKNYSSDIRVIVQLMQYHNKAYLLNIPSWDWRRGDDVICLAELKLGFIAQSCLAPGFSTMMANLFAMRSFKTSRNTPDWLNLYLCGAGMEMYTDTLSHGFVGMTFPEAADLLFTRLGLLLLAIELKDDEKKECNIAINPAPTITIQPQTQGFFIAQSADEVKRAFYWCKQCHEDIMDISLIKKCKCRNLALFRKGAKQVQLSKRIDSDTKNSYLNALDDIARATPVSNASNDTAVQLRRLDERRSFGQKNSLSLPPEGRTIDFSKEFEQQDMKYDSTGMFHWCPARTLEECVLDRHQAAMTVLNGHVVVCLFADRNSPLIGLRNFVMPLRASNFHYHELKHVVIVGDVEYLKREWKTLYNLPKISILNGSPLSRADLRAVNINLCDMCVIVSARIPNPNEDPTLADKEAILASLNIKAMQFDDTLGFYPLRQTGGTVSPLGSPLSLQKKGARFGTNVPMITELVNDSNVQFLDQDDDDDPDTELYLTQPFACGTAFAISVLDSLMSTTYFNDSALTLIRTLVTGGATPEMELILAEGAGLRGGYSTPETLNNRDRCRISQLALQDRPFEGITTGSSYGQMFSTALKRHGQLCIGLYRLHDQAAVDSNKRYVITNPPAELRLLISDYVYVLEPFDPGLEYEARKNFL

For the compound `O=C(N[C@H]1CCOc2ccccc21)c1cnc2c(-c3cc(F)cc(F)c3F)ncc(F)c2c1N1CCOCC1` [Example T1-8, N-[(4S)-3,4-dihydro-2H-1-benzopyran-4-yl]-5-fluoro-4-(morpholin-4-yl)-8-(2,3,5-trifluorophenyl)-1,7-naphthyridine-3-carboxamide], the inhibition at 1 µg/mL in test [1] was greater than 80%. Besides, in test [1], the inhibition at 10 µg/mL is greater than 80%. The figures for the EC50 in test [2], in test [3] and in test [4] were less than 0.1 µg/mL, less than 0.1 µg/mL and 31.6 to 316 nM, respectively.
With `COc1cnc(-c2cc(F)cc(F)c2F)c2ncc(C(=O)N[C@H]3CCOc4ccccc43)c(N(C)C)c12` [Example T1-13, N-[(4S)-3,4-dihydro-2H-1-benzopyran-4-yl]-4-(dimethylamino)-5-methoxy-8-(2,3,5-trifluorophenyl)-1,7-naphthyridine-3-carboxamide], the inhibition at 1 µg/mL in test [1] is greater than 80%. Moreover, the inhibition at 10 µg/mL in test [1] is greater than 80%. Moreover, the EC50 in test [2] was less than 0.1 µg/mL; in test [3], less than 0.1 µg/mL; in test [4], 31.6 to 316 nM.
Regarding `COc1ncc2c(N3CCOCC3)c(C(=O)N[C@H]3CCOc4ccccc43)cnc2c1-c1cccc(Cl)c1Cl` [Example T2-6, 8-(2,3-dichlorophenyl)-N-[(4S)-3,4-dihydro-2H-1-benzopyran-4-yl]-7-methoxy-4-(morpholin-4-yl)-1,6-naphthyridine-3-carboxamide], the 50% effective concentration (EC50) in test [2] was less than 0.1 µg/mL; in test [3] it was less than 0.1 µg/mL; in test [4], 3.16 to 31.6 nM.
Consider `COc1ncc2c(N(C)C)c(C(=O)N[C@H]3CCOc4ccccc43)cnc2c1-c1cccc(Cl)c1Cl` [Example T2-7, 8-(2,3-dichlorophenyl)-N-[(4S)-3,4-dihydro-2H-1-benzopyran-4-yl]-4-(dimethylamino)-7-methoxy-1,6-naphthyridine-3-carboxamide], for which the figures for the EC50 in test [2], in test [3] and in test [4] were less than 0.1 µg/mL, less than 0.1 µg/mL and 3.16 to 31.6 nM, respectively.
In the case of `COc1ncc2c(N(C)C)c(C(=O)N[C@H]3CCOc4ccccc43)cnc2c1-c1cc(Cl)cc(Cl)c1` [Example T2-8, 8-(3,5-dichlorophenyl)-N-[(4S)-3,4-dihydro-2H-1-benzopyran-4-yl]-4-(dimethylamino)-7-methoxy-1,6-naphthyridine-3-carboxamide], the inhibition at 1 µg/mL in test [1] was greater than 80%. For the same compound, the inhibition at 10 µg/mL in test [1] is greater than 80%. Further, the EC50 in test [2] is less than 0.1 µg/mL; in test [3], less than 0.1 µg/mL; in test [4], 3.16 to 31.6 nM.
As for `CN(C)c1c(C(=O)N[C@H]2CCOc3ccccc32)cnc2c(-c3cc(F)cc(F)c3F)c(Cl)cnc12` [Example T3-5, 7-chloro-N-[(4S)-3,4-dihydro-2H-1-benzopyran-4-yl]-4-(dimethylamino)-8-(2,3,5-trifluorophenyl)-1,5-naphthyridine-3-carboxamide], the figures for the half-maximal effective concentration (EC50) in test [2], in test [3] and in test [4] were less than 0.1 µg/mL, less than 0.1 µg/mL and 3.16 to 31.6 nM, respectively.
As for `O=C(N[C@H]1CCOc2ccccc21)c1cnc2c(-c3cc(F)cc(F)c3F)c(Cl)cnc2c1N1CCOCC1` [Example T3-6, 7-chloro-N-[(4S)-3,4-dihydro-2H-1-benzopyran-4-yl]-4-(morpholin-4-yl)-8-(2,3,5-trifluorophenyl)-1,5-naphthyridine-3-carboxamide], the results for the 50% effective concentration (EC50) in test [2], in test [3] and in test [4] were less than 0.1 µg/mL, less than 0.1 µg/mL and 3.16 to 31.6 nM, respectively.
For the compound `CN(C)c1c(C(=O)N[C@H]2CCOc3ccccc32)cnc2c(-c3cc(Cl)cc(Cl)c3)c(Cl)cnc12` [Example T3-7, 7-chloro-8-(3,5-dichlorophenyl)-N-[(4S)-3,4-dihydro-2H-1-benzopyran-4-yl]-4-(dimethylamino)-1,5-naphthyridine-3-carboxamide], the 50% effective concentration (EC50) in test [2] is less than 0.1 µg/mL; in test [3], less than 0.1 µg/mL; in test [4] it was 3.16 to 31.6 nM.

One may read the EC50 as the concentration giving half of the maximal effect.
